Assays:
[1] = system: mouse neuroblastoma cell line neuro-2a; assay: Activity on cell line neuro-2a (simple method); type: cell-based; details: Table 2 neuro-2a Run No. 1, control 7.9
In short: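 Cells (2–6×10^4 per dish) grown 1–2 days at 37 °C, then switched to serum-free RPMI/MEM with compound in PBS for 24 h. Live cells counted by erythrosine exclusion; score is fraction of cells bearing neurites at least as long as the cell's long diameter, from photos.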

[2] = system: human neuroblastoma cell line GOTO; assay: Activity on cell line GOTO (simple method); type: cell-based; details: Table 2 GOTO Run No. 2; 10 μg/ml; control 8.4
Experimental: The biological activities in vitro of the compounds of formula (I) on cells of the nervous system were tested. The cells tested were human neuroblastoma cell line GOTO [see Sekiguchi, M., Oota, T., Sakakibara, K., Inui, N. & Fujii, G., Japan. J. Exp. Med., 49, 67-83 (1979)], and neuroblastoma cell line NB-1 [see Miyake, S., Shimo, Y., Kitamura, T., Nojyo, Y., Nakamura, T., Imkashuku, S. and Abe, T., The Autonomic Nervous System, 10, 115-120 (1973)], and mouse neuroblastoma cell line neuro-2a (Dainippon Pharmaceutical Co., Ltd.) which have been established as the cells of the nervous system. The above neuve cells were grown in an incubator at 37° C. in the presence of 5% carbon dioxide gas exponentially, and then cultivated for a certain period of time together with the compounds of formula (I).
A culture medium [composed of 45% of RPMI 1640 medium, 45% modified Eagle's medium (MEM) and 10% of fetal calf serum (FCS) and containing penicillin G sodium (100 units/ml) and streptomycin sulfate (100 microgram/ml)] containing neurobalstoma cell line GOTO in the logarithmic growth period was poured in an amount of 2 ml each into polystyrene dishes (35 mm; made by Corning Co.) so that the cell concentration was 2 to 6×10^4 cells per dish, and the cells were cultured for 1 to 2 days in a carbon dioxide gas incubator containing 5% of carbon dioxide gas in air at 37° C. Then, the culture fluid was removed, and 2 ml of a fresh serum-free culture fluid (consisting of 50% of RPMI medium and 50% of MEM medium and containing penicillin G sodium and streptomycin sulfate in the same amounts as above) was added. At the same time, a presterilized PBS solution (phosphate buffered saline) of each of the test compounds in various concentrations was added to each of the dishes. After culturing for 24 hours, the number of living cells was counted. Furthermore, the culture was photographed, and from the photos, the number and length of neurites per cell were measured. The numer of living cells was counted for 3 to 6 dishes by resistance to staining with erythrosine dye. The number and length of the neurites were measured with regard to 6 photos (more than 200 cells per photo).
As a simple method of evaluation, the number of cells have neurites with a length equal to, or larger than, the long diameter of the cell was divided by the total number of cells.

[3] = system: mice; assay: Acute toxicity, mouse; type: in vivo; details: 24 hours
Experimental: (§1) The acute toxicity of the compounds of the invention was examined by the following method.
(§2) Male ddy-strain 5-week old mice and male Wistar-strain 8 week old rats, five per group, were used as experimental animals. Each of the compounds was dissolved in saline and administered perorally, and the toxicity of the compound was assessed 24 hours after the administration.

[4] = Acute toxicity, mouse; type: in vivo; details: in vivo, po, Table 6, p.o., read-out: Presumed LD50
Experimental: as §1, §2

[5] = Acute toxicity, rat; type: in vivo; details: in vivo, po, Table 6, p.o., read-out: Presumed LD50
Experimental: as §1, §2

[6] = system: rats; assay: Acute toxicity, rat; type: in vivo; details: 24 hours
Experimental: as §1, §2

[7] = system: human neuroblastoma cell line GOTO; assay: Activity on neuroblastoma cell line GOTO (cell number, number and length of neurites); type: cell-based; details: for Number of cells: control 3.17
In short: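 GOTO cells were cultured 1–2 days at 37 °C, 5% CO2, then switched to serum-free RPMI/MEM (1:1) with compounds in PBS at various concentrations for 24 h. Living cells were counted by erythrosine exclusion (3–6 dishes); neurite number and length per cell were measured from photographs.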

[8] = Table 1 Run No. 3, 1 μg/ml, control 1.94 ± 0.69, all *P <0.01
[9] = Table 1 Run No. 3, 1 μg/ml, control 45.13 ± 22.71, all *P <0.01

Compound	Average of the proportions ([1]; 1 μg/ml)	Average of the proportions ([1]; 10 μg/ml)	Average of the proportions [2]	Number of dead animals/number of test animals ([3]; Table 6, 300 mg/kg p.o.)	Number of dead animals/number of test animals ([3]; Table 6, 500 mg/kg p.o.)	Number of dead animals/number of test animals ([3]; Table 6, 1000 mg/kg p.o.)	LD50 at 24 h [4]	LD50 at 24 h [5]	Number of dead animals/number of test animals ([6]; Table 6, 300 mg/kg p.o.)	Number of dead animals/number of test animals ([6]; Table 6, 500 mg/kg p.o.)	Number of dead animals/number of test animals ([6]; Table 6, 1000 mg/kg p.o.)	Number of neurites/cell (mean ± S.D.) [7, 8]	Number of cells ([7]; Table 1 Run No. 3, 1 μg/ml)	Length of neurites (mean ± S.D.) [7, 9]	other results
Cn1ccc2nc(N3CCNCC3)ncc2c1=O [Compound 706]	17.21%	15.40%	16.39%	0/5	2/5	4/5	550 to 1000 mg/kg	550 to 1000 mg/kg	0/5	1/5	3/5	2.26 ± 0.82 neurites/cell	4.12 × 10^4 /dish	63.24 ± 28.17 μm/cell	Number of neurites/cell (mean ± S.D.) ([7]; Table 1 Run No. 3, 0.1 μg/ml, control 1.94 ± 0.69, *P <0.01): 2.30 ± 0.75 neurites/cell; Number of cells ([7]; Table 1 Run No. 3, 0.1 μg/ml): 3.81 × 10^4 /dish; Length of neurites (mean ± S.D.) ([7]; Table 1 Run No. 3, 0.1 μg/ml, control 45.13 ± 22.71, *P <0.01): 72.11 ± 26.58 μm/cell
CCn1ccc2nc(N3CCNCC3)ncc2c1=O [Compound 710]	15.97%	13.70%	15.02%	0/5	3/5	5/5	300 to 550 mg/kg	550 to 1000 mg/kg	1/5	2/5	5/5	2.17 ± 0.79 neurites/cell	3.92 × 10^4 /dish	60.93 ± 23.66 μm/cell	Number of neurites/cell (mean ± S.D.) ([7]; Table 1 Run No. 1, 10 μg/ml, control 2.09 ± 0.61): 2.12 ± 0.51 neurites/cell; Number of cells (mean ± S.E.) ([7]; Table 1 Run No. 1, 10 μg/ml, control 14.34 ± 0.72): 19.18 ± 0.67 × 10^4 /dish; Length of neurites (mean ± S.D.) ([7]; Table 1 Run No. 1, 10 μg/ml, control 70.10 ± 43.03): 86.10 ± 50.70 μm/cell; Number of neurites/cell (mean ± S.D.) ([7]; Table 1 Run No. 1, 100 μg/ml, control 2.09 ± 0.61): 1.71 ± 0.59 neurites/cell; Number of cells (mean ± S.E.) ([7]; Table 1 Run No. 1, 100 μg/ml, control 14.34 ± 0.72): 11.92 ± 0.66 × 10^4 /dish; Length of neurites (mean ± S.D.) ([7]; Table 1 Run No. 1, 100 μg/ml, control 70.10 ± 43.03): 47.34 ± 35.11 μm/cell; Number of neurites/cell (mean ± S.D.) ([7]; Table 1 Run No. 2, 1 μg/ml, control 2.06 ± 0.60): 2.14 ± 0.63 neurites/cell; Number of cells (mean ± S.E.) ([7]; Table 1 Run No. 2, 1 μg/ml, control 12.30 ± 1.48): 17.44 ± 1.50 × 10^4 /dish; Length of neurites (mean ± S.D.) ([7]; Table 1 Run No. 2, 1 μg/ml, control 55.00 ± 37.26): 73.74 ± 43.49 μm/cell; Number of neurites/cell (mean ± S.D.) ([7]; Table 1 Run No. 2, 10 μg/ml, control 2.06 ± 0.60): 2.09 ± 0.62 neurites/cell; Number of cells (mean ± S.E.) ([7]; Table 1 Run No. 2, 10 μg/ml, control 12.30 ± 1.48): 15.15 ± 2.26 × 10^4 /dish; Length of neurites (mean ± S.D.) ([7]; Table 1 Run No. 2, 10 μg/ml, control 55.00 ± 37.26): 62.74 ± 35.64 μm/cell; Number of cells ([7]; Table 1 Run No. 3, 0.0 μg/ml (so in the source)): 3.66 × 10^4 /dish
